{"source": "patent US20260284208A1", "about": "“SYSTEM” (Oxford University Innovation Limited, priority 2023, published 2026)", "system": "library of 8,380 IKZF3 degrons (ZF-eGFP/mCherry reporter) in Jurkat cells", "test": "Pooled library screen (FACS, NGS, limma voom LogFC of positive vs negative read counts)", "type": "cell-based, human", "description": "A library of 8,380 IKZF3 degrons was cloned into pLVX-Sprout to create the eGFP/mCherry protein degradation reporter plasmid pool. A lentivirus pool was then generated using the Lenti-X lentiviral vector production method.\nJurkat cells were transduced at a multiplicity of infection of <0.3 with the lentivirus vector library in order to maximise the number of cells with a single integration. Transductions were carried out in 6 well TC-treated cell culture dishes (Falcon) with 3×10^6 cells per well. Cells were incubated for 2 days at 37° C. and 5% CO2 before the supernatant was removed and replaced with fresh media. 6 days post-transduction, mCherry+ cells were isolated via FACS using the FACS Aria Fusion (BD) in a buffer containing PBS (Gibco), 2 mM EDTA (Gibco), 25 mM HEPES (Sigma) and 1% BSA (Sigma). 8 days later, cells were treated with DMSO or a thalidomide analog for 18 hours at 37° C. and 5% CO2. mCherry+GFPlow and NOT(mCherry+GFPlow) cells were sorted by FACS using the FACS Aria Fusion (BD). DMSO treated cells were used to set the mCherry+GFPlow gate and dead cells were excluded from sorting by staining cells with 1 μg/mL DAPI (ThermoFisher). gDNA was isolated using the Maxwell RSC 48 (Promega). gDNA from cells that were unsorted and untreated were also isolated to determine the library representation on the day of compound treatment. Throughout the screen >600× coverage of the library was maintained. 3 biological replicates were carried out with a new transduction taking place each time.\nA two-step PCR was used where the first PCR (PCR1) amplified the integrated degron sequence from gDNA and the second PCR (PCR2) added Illumina adaptors and barcodes to permit multiplexing. See Supp F for PCR1 and PCR2 primers. Q5 Hot Start High-Fidelity 2× Master Mix (New England Biolabs) was used for both PCRs. Sufficient gDNA was amplified in PCR1 in order to maintain >600× coverage and amplicons were purified using solid phase reversible immobilization (SPRI) beads (Beckman Coulter). Purified PCR1 products were analysed on the Tapestation 4200 (Agilent) to confirm purity prior to proceeding to PCR2. Sufficient PCR1 product was amplified in PCR2 in order to maintain >600× coverage and amplicons were run on a 2% agarose TAE gel. Target bands were excised and purified using the NucleoSpin Gel and PCR Clean-up Kit (Machery Nagel). Amplicons were analysed on the Tapestation 4200 and quantified using Qubit dsDNA HS kit (ThermoFisher). PCR products were pooled and sequenced as paired-reads on the NovaSeq (Illumina) using a SP2 200 cycles kit (Illumina).\nCount distributions, percentage of read mapping, library coverage and replicate correlation per sample were assessed for QC purposes.\nTo carry out the library screen, we used the same plasmid construct as in our earlier flow cytometry assays, but pooling all 8,380 mutants together into one Jurkat population, ensuring a copy number of one plasmid per cell (FIG. 4B). […] These GFP-negative cells were then separated from the remaining GFP-positive population using fluorescence activated cell sorting (FACS). These two populations were then sequenced and the relative abundance of every mutant in both populations compared to provide a log FC value for each mutant sequence. This value indicated how frequently a sequence is observed in the GFP-negative population relative to the GFP-positive population, and therefore how effective a degron it is for that particular IMID compound.", "data": [{"smiles": "O=C1CCC(N2C(=O)c3ccccc3C2=O)C(=O)N1", "note": "(centres unmarked) [A32, 2-(2,6-dioxopiperidin-3-yl)isoindoline-1,3-dione]", "values": [{"measurement": "A32_logFC", "setting": "Degron-ID 3102, SEQ ID NO 98, 46F_47Q_49P_50V_52G_53A_54D_55F_67L", "result": 3.4}, {"measurement": "A32_logFC", "setting": "Degron-ID 3105, SEQ ID NO 103, 46F_47Q_49P_50V_52G_53A_54G_55F_67L", "result": 3.381}, {"measurement": "A32_logFC", "setting": "Degron-ID 3106, SEQ ID NO 132, 46F_47Q_49P_50V_52G_53A_54H_55F_67L", "result": 3.266}, {"measurement": "A32_logFC", "setting": "Degron-ID 3107, SEQ ID NO 70, 46F_47Q_49P_50V_52G_53A_54I_55F_67L", "result": 3.527}, {"measurement": "A32_logFC", "setting": "Degron-ID 3108, SEQ ID NO 4, 46F_47Q_49P_50V_52G_53A_54K_55F_67L", "result": 3.962}, {"measurement": "A32_logFC", "setting": "Degron-ID 3109, SEQ ID NO 75, 46F_47Q_49P_50V_52G_53A_54L_55F_67L", "result": 3.497}, {"measurement": "A32_logFC", "setting": "Degron-ID 3110, SEQ ID NO 49, 46F_47Q_49P_50V_52G_53A_54M_55F_67L", "result": 3.582}, {"measurement": "A32_logFC", "setting": "Degron-ID 3111, SEQ ID NO 78, 46F_47Q_49P_50V_52G_53A_54N_55F_67L", "result": 3.484}, {"measurement": "A32_logFC", "setting": "Degron-ID 3112, SEQ ID NO 5, 46F_47Q_49P_50V_52G_53A_54P_55F_67L", "result": 3.872}, {"measurement": "A32_logFC", "setting": "Degron-ID 3116, SEQ ID NO 9, 46F_47Q_49P_50V_52G_53A_54T_55F_67L", "result": 3.794}, {"measurement": "A32_logFC", "setting": "Degron-ID 3132, SEQ ID NO 73, 46F_47R_49D_50I_52G_53A_54P_55F_67L", "result": 3.521}, {"measurement": "A32_logFC", "setting": "Degron-ID 3192, SEQ ID NO 53, 46F_47R_49E_50I_52G_53A_54P_55F_67L", "result": 3.575}, {"measurement": "A32_logFC", "setting": "Degron-ID 3252, SEQ ID NO 104, 46F_47R_49N_50I_52G_53A_54P_55F_67L", "result": 3.38}, {"measurement": "A32_logFC", "setting": "Degron-ID 3312, SEQ ID NO 69, 46F_47R_49P_50I_52G_53A_54P_55F_67L", "result": 3.528}, {"measurement": "A32_logFC", "setting": "Degron-ID 3352, SEQ ID NO 74, 46F_47R_49P_50V_52G_53A_54P_55F_67L", "result": 3.513}, {"measurement": "A32_logFC", "setting": "Degron-ID 3714, SEQ ID NO 136, 46F_47T_49E_50V_52G_53A_54R_55F_67L", "result": 3.256}, {"measurement": "A32_logFC", "setting": "Degron-ID 3799, SEQ ID NO 121, 46F_47T_49P_50I_52G_53A_54Y_55F_67L", "result": 3.31}, {"measurement": "A32_logFC", "setting": "Degron-ID 3821, SEQ ID NO 117, 46F_47T_49P_50V_52G_53A_54C_55F_67L", "result": 3.33}, {"measurement": "A32_logFC", "setting": "Degron-ID 3940, SEQ ID NO 110, 46F_47V_49E_50V_52G_53A_54A_55F_67L", "result": 3.355}, {"measurement": "A32_logFC", "setting": "Degron-ID 3954, SEQ ID NO 139, 46F_47V_49E_50V_52G_53A_54R_55F_67L", "result": 3.254}, {"measurement": "A32_logFC", "setting": "Degron-ID 3955, SEQ ID NO 63, 46F_47V_49E_50V_52G_53A_54S_55F_67L", "result": 3.54}, {"measurement": "A32_logFC", "setting": "Degron-ID 3972, SEQ ID NO 115, 46F_47V_49N_50I_52G_53A_54P_55F_67L", "result": 3.332}, {"measurement": "A32_logFC", "setting": "Degron-ID 4032, SEQ ID NO 77, 46F_47V_49P_50I_52G_53A_54P_55F_67L", "result": 3.493}, {"measurement": "A32_logFC", "setting": "Degron-ID 6496, SEQ ID NO 102, 46L_47C_49P_50I_52G_53F_54T_55C_67L", "result": 3.382}, {"measurement": "A32_logFC", "setting": "Degron-ID 6528, SEQ ID NO 135, 46L_47E_49P_50I_52G_53F_54K_55C_67L", "result": 3.258}, {"measurement": "A32_logFC", "setting": "Degron-ID 6536, SEQ ID NO 101, 46L_47E_49P_50I_52G_53F_54T_55C_67L", "result": 3.382}, {"measurement": "A32_logFC", "setting": "Degron-ID 6539, SEQ ID NO 113, 46L_47E_49P_50I_52G_53F_54Y_55C_67L", "result": 3.343}, {"measurement": "A32_logFC", "setting": "Degron-ID 6700, SEQ ID NO 60, 46L_47Q_49P_50I_52G_53F_54A_55C_67L", "result": 3.551}, {"measurement": "A32_logFC", "setting": "Degron-ID 6703, SEQ ID NO 88, 46L_47Q_49P_50I_52G_53F_54E_55C_67L", "result": 3.442}, {"measurement": "A32_logFC", "setting": "Degron-ID 6706, SEQ ID NO 122, 46L_47Q_49P_50I_52G_53F_54H_55C_67L", "result": 3.305}, {"measurement": "A32_logFC", "setting": "Degron-ID 6707, SEQ ID NO 85, 46L_47Q_49P_50I_52G_53F_54I_55C_67L", "result": 3.453}, {"measurement": "A32_logFC", "setting": "Degron-ID 6708, SEQ ID NO 96, 46L_47Q_49P_50I_52G_53F_54K_55C_67L", "result": 3.401}, {"measurement": "A32_logFC", "setting": "Degron-ID 6710, SEQ ID NO 59, 46L_47Q_49P_50I_52G_53F_54M_55C_67L", "result": 3.553}, {"measurement": "A32_logFC", "setting": "Degron-ID 6713, SEQ ID NO 86, 46L_47Q_49P_50I_52G_53F_54Q_55C_67L", "result": 3.449}, {"measurement": "A32_logFC", "setting": "Degron-ID 6714, SEQ ID NO 111, 46L_47Q_49P_50I_52G_53F_54R_55C_67L", "result": 3.346}, {"measurement": "A32_logFC", "setting": "Degron-ID 6715, SEQ ID NO 66, 46L_47Q_49P_50I_52G_53F_54S_55C_67L", "result": 3.532}, {"measurement": "A32_logFC", "setting": "Degron-ID 6719, SEQ ID NO 81, 46L_47Q_49P_50I_52G_53F_54Y_55C_67L", "result": 3.469}, {"measurement": "A32_logFC", "setting": "Degron-ID 6732, SEQ ID NO 89, 46L_47R_49P_50I_52G_53F_54P_55C_67L", "result": 3.438}, {"measurement": "A32_logFC", "setting": "Degron-ID 6775, SEQ ID NO 76, 46L_47T_49P_50I_52G_53F_54S_55C_67L", "result": 3.495}, {"measurement": "A32_logFC", "setting": "Degron-ID 6776, SEQ ID NO 87, 46L_47T_49P_50I_52G_53F_54T_55C_67L", "result": 3.444}, {"measurement": "A32_logFC", "setting": "Degron-ID 6780, SEQ ID NO 57, 46L_47V_49P_50I_52G_53F_54A_55C_67L", "result": 3.558}, {"measurement": "A32_logFC", "setting": "Degron-ID 6795, SEQ ID NO 48, 46L_47V_49P_50I_52G_53F_54S_55C_67L", "result": 3.587}, {"measurement": "A32_logFC", "setting": "Degron-ID 7840, SEQ ID NO 95, 46L_47Q_49E_50I_52G_53F_54A_55C_67L", "result": 3.402}, {"measurement": "A32_logFC", "setting": "Degron-ID 7848, SEQ ID NO 131, 46L_47Q_49E_50I_52G_53F_54K_55C_67L", "result": 3.267}, {"measurement": "A32_logFC", "setting": "Degron-ID 7853, SEQ ID NO 124, 46L_47Q_49E_50I_52G_53F_54Q_55C_67L", "result": 3.298}, {"measurement": "A32_logFC", "setting": "Degron-ID 7854, SEQ ID NO 52, 46L_47Q_49E_50I_52G_53F_54R_55C_67L", "result": 3.575}, {"measurement": "A32_logFC", "setting": "Degron-ID 7855, SEQ ID NO 51, 46L_47Q_49E_50I_52G_53F_54S_55C_67L", "result": 3.576}, {"measurement": "A32_logFC", "setting": "Degron-ID 7857, SEQ ID NO 99, 46L_47Q_49E_50I_52G_53F_54V_55C_67L", "result": 3.397}, {"measurement": "A32_logFC", "setting": "Degron-ID 7934, SEQ ID NO 128, 46L_47V_49E_50I_52G_53F_54R_55C_67L", "result": 3.277}, {"measurement": "A32_logFC", "setting": "Degron-ID 7935, SEQ ID NO 118, 46L_47V_49E_50I_52G_53F_54S_55C_67L", "result": 3.326}]}]}
